pIC50: −log10 of the molar value. Where “and” joins values, the source holds several entries; their conditions need not be identical. Identical values can stand only once. Like-named read-outs stand apart in the source and are kept apart here.
Key:
[1] = system: parent strain (SAWy518)
[2] = system: parent strain (SAWy518); experiment: Off-target control in IC50 determination: growth of light-insensitive parent strain at each inhibitor concentration; type: cell-based, Saccharomyces cerevisiae; details: at the dosages used in this study
[3] = system: MCT1; details: cited from earlier work; for MCT1 inhibitor annotation: NOTES/Group column, ref not given
[4] = cited from earlier work
[5] = system: parent strain (SAWy518); experiment: microbe, parasite or virus in culture; parameters: species or system Saccharomyces cerevisiae SAWy518; Off-target growth counter-screen, OD600 as per cent of untreated wells, strain lacking MCT1; details: 18.5 h; sheet Primary Screen - final;; off-target growth of parent strain, about 18 h
Experimental: Cells were grown for 18 hours prior to OD measurement. Fill represents manual compound grouping based on compound class or target. OD600 is reported in Tecan units. […] The drug library used in this study for the initial screen and rescreen was provided by the Small Molecule Screening Center at Princeton University, through a collaboration with Dr. Hahn Kim. […] Follow-up analysis (IC50 determinations) on library compounds was performed using compounds purchased from outside sources. […] Stocks were then diluted 100-fold into media containing 0.01 OD600 inoculation of yeast, to achieve the final concentrations listed. Where compounds were added manually (for example 10 μM AZD3965 addition) stock concentrations were diluted by a factor of 100-fold regardless of scale, resulting in a final concentration of 1% v/v DMSO which is well tolerated by yeast.

[6] = system: cancer cell growth; details: cited from earlier work

Structure (SMILES): CC1=C(CC(=O)O)c2cc(F)ccc2/C1=C\c1ccc([S+](C)[O-])cc1 (stereo not shown) [Sulindac, reference compound]
- OffScreen_percentage [1]: 103.073 percentage
- Offscreen_18hr [1]: 0.8318
- Offscreen_24hr [1]: 0.9131
- Offscreen_42hr [1]: 0.9739
- Read_percentage [1]: 103.073
- off-target toxicity [2]: do not exhibit off-target toxicity

Structure (SMILES): O=c1c(O)c(-c2ccc(O)c(O)c2)oc2cc(O)cc(O)c12 [Quercetin (Sophoretin)]
- MCT1 inhibition (annotation) ([3]; library annotation): PI3K, PKC, Src, Sirtuin inhibitor, MCT1 inhibitor - flavanoid
- Offscreen_18hr [1]: 0.7827
- Offscreen_24hr [1]: 0.8834
- Offscreen_42hr [1]: 0.9444

Structure (SMILES): O=c1c(O)c(-c2ccc(O)c(O)c2)oc2cc(O)cc(O)c12 [Quercetin dihydrate]
- MCT1 inhibition (annotation) ([3]; library annotation): Known MCT1 inhibitor, PI3-K and PDE inhibitor (flavanoid)
- Offscreen_18hr [1]: 0.7753
- Offscreen_24hr [1]: 0.8789
- Offscreen_42hr [1]: 0.9377

Structure (SMILES): CC(C(=O)O)c1cccc(C(=O)c2ccccc2)c1 (stereo not shown) [Ketoprofen]
- off-target toxicity [2]: do not exhibit off-target toxicity

Structure (SMILES): O=C(O)Cc1ccccc1Nc1c(Cl)cccc1Cl [Diclofenac, reference compound]
- pIC50 ([3]; read-out: previously reported inhibition value for MCT1 (IC50)): 5.85
- blood-plasma concentration ([4]; 150–200 mg daily): 6.1 µM
- OffScreen_percentage [1]: 100.855 percentage
- Offscreen_18hr [1]: 0.8139
- Offscreen_24hr [1]: 0.8825
- Offscreen_42hr [1]: 0.9387
- Read_percentage [1]: 100.855 percentage

Structure (SMILES): O=c1c(O)c(-c2ccc(O)c(O)c2)oc2cc(O)cc(O)c12 [Quercetin, reference compound]
- MCT1 inhibitor annotation ([3]; library annotation): Known MCT1 inhibitor, PI3-K and PDE inhibitor (flavanoid)
- Known MCT1 inhibitor ([3]; library annotation): Known MCT1 inhibitor, PI3-K and PDE inhibitor (flavanoid)
- OffScreen_percentage [1]: 96.0719 percentage
- Offscreen_18hr [1]: 0.7753
- Offscreen_24hr [1]: 0.8789
- Offscreen_42hr [1]: 0.9377
- Read_percentage [1]: 96.0719 percentage

Structure (SMILES): O=C(CCc1ccc(O)cc1)c1c(O)cc(O)cc1O [Phloretin]
- MCT1 inhibitor annotation ([3]; library annotation): MCT1 inhibitor
- viability at 10 µM [5]: 94.4%
- OffScreen_percentage [1]: 94.4238 percentage
- Offscreen_18hr [1]: 0.762
- Offscreen_24hr [1]: 0.892
- Offscreen_42hr [1]: 0.9541
- Read_percentage [1]: 94.4238 percentage

Structure (SMILES): CN1C(C(=O)Nc2ccccn2)=C(O)c2ccccc2S1(=O)=O [Piroxicam, reference compound]
- concentrations of in vitro anticancer activity [6]: 25 to 30 µM
- blood-plasma concentration ([4]; 20 mg/day): 16 to 20 µM
- OffScreen_percentage [1]: 95.2292 percentage
- Offscreen_18hr [1]: 0.7685 and 0.7781
- Offscreen_24hr [1]: 0.8625 and 0.86
- Offscreen_42hr [1]: 0.9267 and 0.9178
- Read_percentage [1]: 95.2292 percentage

Structure (SMILES): O=C1Nc2ccc(Cl)cc2[C@@](C#CC2CC2)(C(F)(F)F)O1 [Efavirenz]
- viability at 10 µM [5]: 96.8%
- OffScreen_percentage [1]: 96.803 percentage
- Offscreen_18hr [1]: 0.7812
- Offscreen_24hr [1]: 0.8701
- Offscreen_42hr [1]: 0.9373
- Read_percentage [1]: 96.803 percentage

Structure (SMILES): COc1cc(C(=O)NS(=O)(=O)c2ccccc2C)ccc1Cc1cn(C)c2ccc(NC(=O)OC3CCCC3)cc12 [Zafirlukast]
- viability at 10 µM [5]: 104%
- OffScreen_percentage [1]: 103.829 percentage
- Offscreen_18hr [1]: 0.8379
- Offscreen_24hr [1]: 0.9188
- Offscreen_42hr [1]: 0.9793
- Read_percentage [1]: 103.829

Structure (SMILES): Cc1ccc(S(=O)(=O)N[C@@H](Cc2ccccc2)C(=O)CCl)cc1 [TCPK]
- viability at 10 µM [5]: 91%
- OffScreen_percentage [1]: 91.0409 percentage
- Offscreen_18hr [1]: 0.7347
- Offscreen_24hr [1]: 0.8725
- Offscreen_42hr [1]: 0.9353
- Read_percentage [1]: 91.0409

Structure (SMILES): CCn1cc(-c2ccnc3[nH]c(-c4cccc(CN(C)C)c4)cc23)c(-c2ccc(NC(=O)N(C)C)cc2)n1 [GSK1070916]
- viability at 10 µM [5]: 97.4%
- OffScreen_percentage [1]: 97.373 percentage
- Offscreen_18hr [1]: 0.7858
- Offscreen_24hr [1]: 0.8818
- Offscreen_42hr [1]: 0.9396
- Read_percentage [1]: 97.373 percentage

Structure (SMILES): O=c1c(-c2ccc(O)cc2)coc2cc(O)cc(O)c12 [Genistein]
- viability at 10 µM [5]: 101%
- OffScreen_percentage [1]: 100.644 percentage
- Offscreen_18hr [1]: 0.8122
- Offscreen_24hr [1]: 0.8948
- Offscreen_42hr [1]: 0.9535
- Read_percentage [1]: 100.644 percentage

Structure (SMILES): CC1=C(C)C(=O)C(C(CCCCCC(=O)O)c2ccccc2)=C(C)C1=O (stereo not shown) [Seratrodast]
- viability at 10 µM [5]: 94%
- OffScreen_percentage [1]: 93.9777 percentage
- Offscreen_18hr [1]: 0.7584
- Offscreen_24hr [1]: 0.8726
- Offscreen_42hr [1]: 0.927
- Read_percentage [1]: 93.9777

Structure (SMILES): C=CC[C@@H]1/C=C(\C)C[C@H](C)C[C@H](OC)[C@H]2O[C@@](O)(C(=O)C(=O)N3CCCC[C@H]3C(=O)O[C@H](/C(C)=C/[C@@H]3CC[C@@H](O)[C@H](OC)C3)[C@H](C)[C@@H](O)CC1=O)[C@H](C)C[C@@H]2OC [Tacrolimus]
- viability at 10 µM [5]: 90.1%
- OffScreen_percentage [1]: 90.0867 percentage
- Offscreen_18hr [1]: 0.727 and 0.685
- Offscreen_24hr [1]: 0.8973 and 0.8833
- Offscreen_42hr [1]: 0.9661 and 0.9834
- Read_percentage [1]: 90.0867

Structure (SMILES): COc1ccc([C@@H](C)C(=O)c2ccc(O)cc2O)cc1 [Angolesin]
- viability at 10 µM [5]: 95.7%
- OffScreen_percentage [1]: 95.7373 percentage
- Offscreen_18hr [1]: 0.7726
- Offscreen_24hr [1]: 0.8843
- Offscreen_42hr [1]: 0.9388
- Read_percentage [1]: 95.7373 percentage

Structure (SMILES): C=CCc1ccc(O)c(-c2ccc(O)c(CC=C)c2)c1 [Honokiol]
- viability at 10 µM [5]: 92.7%
- OffScreen_percentage [1]: 92.7385 percentage
- Offscreen_18hr [1]: 0.7484
- Offscreen_24hr [1]: 0.875
- Offscreen_42hr [1]: 0.9267
- Read_percentage [1]: 92.7385 percentage

Structure (SMILES): NCCS(=O)(=O)O [Taurine]
- viability at 10 µM [5]: 104%
- OffScreen_percentage [1]: 104.139 percentage
- Offscreen_18hr [1]: 0.8404
- Offscreen_24hr [1]: 0.9173
- Offscreen_42hr [1]: 0.9826
- Read_percentage [1]: 104.139

Structure (SMILES): O=c1cc(O)cc(/C=C/c2ccc(O)c(O)c2)o1 [Hispidin]
- viability at 10 µM [5]: 97.1%
- OffScreen_percentage [1]: 97.0508 percentage
- Offscreen_18hr [1]: 0.7832
- Offscreen_24hr [1]: 0.8897
- Offscreen_42hr [1]: 0.9435
- Read_percentage [1]: 97.0508 percentage

Structure (SMILES): N#Cc1c(O)c2c(-c3ccc(-c4ccccc4O)cc3)csc2[nH]c1=O [A-769662]
- viability at 10 µM [5]: 102%
- OffScreen_percentage [1]: 102.02 percentage
- Offscreen_18hr [1]: 0.8233
- Offscreen_24hr [1]: 0.9004
- Offscreen_42hr [1]: 0.9609
- Read_percentage [1]: 102.02 percentage
